Values after ≈ are worked out from the molar mass of the structure shown.
Experiments:
Format in all cases: functional
Rattus norvegicus [1] = organism: Rattus norvegicus; experiment: Antiovulatory activity expressed as ratio of rats ovulated/total rats at a dose of 0.5 microg; 4/6
Rattus norvegicus [2] = organism: Rattus norvegicus; experiment: Antiovulatory activity expressed as ratio of rats ovulated/total rats at a dose of 0.5 microg; 7/7
Rattus norvegicus [3] = organism: Rattus norvegicus; experiment: Antiovulatory activity expressed as ratio of rats ovulated/total rats at a dose of 0.5 microg; 6/6
Rattus norvegicus [4] = organism: Rattus norvegicus; experiment: Antiovulatory activity expressed as ratio of rats ovulated/total rats at a dose of 0.25 microg; 6/8
Rattus norvegicus [5] = organism: Rattus norvegicus; experiment: Antiovulatory activity expressed as ratio of rats ovulated/total rats at a dose of 1.0 ug
Rattus norvegicus [6] = organism: Rattus norvegicus; experiment: Antiovulatory activity expressed as ratio of rats ovulated/total rats at a dose of 0.5 microg; 0/8
Rattus norvegicus [7] = organism: Rattus norvegicus; experiment: Evaluated for histamine releasing activity
Rattus norvegicus [8] = organism: Rattus norvegicus; experiment: Antiovulatory activity expressed as ratio of rats ovulated/total rats at a dose of 0.5 microg; 5/5

SMILES: CC(=O)N[C@H](Cc1ccc2ccccc2c1)C(=O)N[C@H](Cc1ccc(Cl)cc1)C(=O)N[C@H](Cc1cccnc1)C(=O)N[C@@H](CO)C(=O)N[C@@H](CCCCNC(=O)c1ccccn1)C(=O)N[C@H](CCCCNC(=O)c1ncccc1N)C(=O)N[C@@H](CC(C)C)C(=O)N[C@@H](CCCCNC(C)C)C(=O)N1CCC[C@H]1C(=O)N[C@H](C)C(=O)O
- Ratio (Rattus norvegicus [1]): 4

SMILES: CC(=O)N[C@H](Cc1ccc2ccccc2c1)C(=O)N[C@H](Cc1ccc(Cl)cc1)C(=O)N[C@H](Cc1cccnc1)C(=O)N[C@@H](CO)C(=O)N[C@@H](CCCCNC(=O)c1ccccn1)C(=O)N[C@H](CCCCNC(=O)c1cccnc1N)C(=O)N[C@@H](CC(C)C)C(=O)N[C@@H](CCCN=C(N)N)C(=O)N1CCC[C@H]1C(=O)N[C@H](C)C(=O)O
- Number of rats ovulated (Rattus norvegicus [2]): 7

SMILES: C[C@@H](NC(=O)[C@@H]1CCCN1C(=O)[C@H](CCCN=C(N)N)NC(=O)[C@H](Cc1c[nH]cn1)NC(=O)[C@@H](CCCCNC(=O)c1ccc(N)nc1)NC(=O)[C@H](CCCCNC(=O)c1ccccn1)NC(=O)[C@H](CO)NC(=O)[C@@H](Cc1cccnc1)NC(=O)[C@@H](Cc1ccc(Cl)cc1)NC(=O)[C@H](N)Cc1ccc2ccccc2c1)C(=O)O
- Number of rats ovulated (Rattus norvegicus [3]): 6

SMILES: CC(=O)N[C@H](Cc1ccc2ccccc2c1)C(=O)N[C@H](Cc1ccc(Cl)cc1)C(=O)N[C@H](Cc1cccnc1)C(=O)N[C@@H](CO)C(=O)N[C@@H](CCCCNC(=O)c1ccc(N)nc1)C(=O)N[C@H](CCCCNC(=O)c1ccc(N)nc1)C(=O)N[C@@H](CC(C)C)C(=O)N[C@@H](CCCN=C(N)N)C(=O)N1CCC[C@H]1C(=O)N[C@H](C)C(=O)O
- Number of rats ovulated (Rattus norvegicus [3]): 6

SMILES: CC(=O)N[C@H](Cc1ccc2ccccc2c1)C(=O)N[C@H](Cc1ccc(Cl)cc1)C(=O)N[C@H](Cc1cccnc1)C(=O)N[C@@H](CO)C(=O)N[C@@H](CCCCNC(=O)c1cccnc1N)C(=O)N[C@H](CCCCNC(=O)c1cccnc1N)C(=O)N[C@@H](CC(C)C)C(=O)N[C@@H](CCCN=C(N)N)C(=O)N1CCC[C@H]1C(=O)N[C@H](C)C(=O)O
- Number of rats ovulated (Rattus norvegicus [3]): 6

SMILES: CC(=O)N[C@H](Cc1ccc2ccccc2c1)C(=O)N[C@H](Cc1ccc(Cl)cc1)C(=O)N[C@H](Cc1cccnc1)C(=O)N[C@@H](CO)C(=O)N[C@@H](CCCNC(=O)c1cnccn1)C(=O)N[C@H](CCCCNC(=O)c1ccc(N)nc1)C(=O)N[C@@H](CC(C)C)C(=O)N[C@@H](CCCN=C(N)N)C(=O)N1CCC[C@H]1C(=O)N[C@H](C)C(=O)O
- Number of rats ovulated (Rattus norvegicus [3]): 6

SMILES: CC(=O)N[C@H](Cc1ccc2ccccc2c1)C(=O)N[C@H](Cc1ccc(Cl)cc1)C(=O)N[C@H](Cc1cccnc1)C(=O)N[C@@H](CO)C(=O)N[C@@H](CCCCNC(=O)c1ccccn1)C(=O)N[C@H](CCCNC(=O)c1ccc(N)nc1)C(=O)N[C@@H](CC(C)C)C(=O)N[C@@H](CCCN=C(N)N)C(=O)N1CCC[C@H]1C(=O)N[C@H](C)C(=O)O
- Ratio (Rattus norvegicus [4]): 6
- Ratio (Rattus norvegicus [5]): 0
- Ratio (Rattus norvegicus [6]): 0
- ED50 (Rattus norvegicus [7]): 100 µg/mL (≈ 63.3 µM)

SMILES: CC(=O)N[C@H](Cc1ccc2ccccc2c1)C(=O)N[C@H](Cc1ccc(Cl)cc1)C(=O)N[C@H](Cc1cccnc1)C(=O)N[C@@H](CO)C(=O)N[C@@H](CCCCNC(=O)c1cccnc1N)C(=O)N[C@H](CCCCNC(=O)c1cccnc1N)C(=O)N[C@@H](CC(C)C)C(=O)N[C@@H](CCCCNC(C)C)C(=O)N1CCC[C@H]1C(=O)N[C@H](C)C(=O)O
- Number of rats ovulated (Rattus norvegicus [2]): 7

SMILES: CC(=O)N[C@H](Cc1ccc2ccccc2c1)C(=O)N[C@H](Cc1ccc(Cl)cc1)C(=O)N[C@H](Cc1cccnc1)C(=O)N[C@@H](CO)C(=O)N[C@@H](CCCCNC(=O)c1cccc(N)n1)C(=O)N[C@H](CCCCNC(=O)c1cccc(N)n1)C(=O)N[C@@H](CC(C)C)C(=O)N[C@@H](CCCCNC(C)C)C(=O)N1CCC[C@H]1C(=O)N[C@H](C)C(=O)O
- Number of rats ovulated (Rattus norvegicus [2]): 7

SMILES: CC(=O)N[C@H](Cc1cnc2ccccc2c1)C(=O)N[C@H](Cc1ccc(Cl)cc1)C(=O)N[C@H](Cc1cccnc1)C(=O)N[C@@H](CO)C(=O)N[C@@H](CCCNC(=O)c1cnccn1)C(=O)N[C@H](CCCNC(=O)c1ccc(N)nc1)C(=O)N[C@@H](CC(C)C)C(=O)N[C@@H](CCCN=C(N)N)C(=O)N1CCC[C@H]1C(=O)N[C@H](C)C(=O)O
- Ratio (Rattus norvegicus [8]): 5

SMILES: CC(=O)N[C@H](Cc1ccc2ccccc2c1)C(=O)N[C@H](Cc1ccc(Cl)cc1)C(=O)N[C@H](Cc1cccnc1)C(=O)N[C@@H](CO)C(=O)N[C@@H](CCCCNC(=O)c1ccccn1)C(=O)N[C@H](CCCCNC(=O)c1nccnc1N)C(=O)N[C@@H](CC(C)C)C(=O)N[C@@H](CCCN=C(N)N)C(=O)N1CCC[C@H]1C(=O)N[C@H](C)C(=O)O
- Number of rats ovulated (Rattus norvegicus [3]): 6

SMILES: CC(=O)N[C@H](Cc1ccc2ccccc2c1)C(=O)N[C@H](Cc1ccc(Cl)cc1)C(=O)N[C@H](Cc1cccnc1)C(=O)N[C@@H](CO)C(=O)N[C@@H](CCCCNC(=O)c1nccnc1N)C(=O)N[C@H](CCCCNC(=O)c1nccnc1N)C(=O)N[C@@H](CC(C)C)C(=O)N[C@@H](CCCN=C(N)N)C(=O)N1CCC[C@H]1C(=O)N[C@H](C)C(=O)O
- Ratio (Rattus norvegicus [1]): 4

SMILES: CNC[C@@H](NC(=O)[C@@H]1CCCN1C(=O)[C@H](CCCN=C(N)N)NC(=O)[C@H](CC(C)C)NC(=O)[C@@H](CCCCNC(=O)c1ccc(N)nc1)NC(=O)[C@H](CCCCNC(=O)c1ccccn1)NC(=O)[C@H](CO)NC(=O)[C@@H](Cc1cccnc1)NC(=O)[C@@H](Cc1ccc(Cl)cc1)NC(=O)[C@H](N)Cc1ccc2ccccc2c1)C(=O)O
- Ratio (Rattus norvegicus [4]): 6
- Ratio (Rattus norvegicus [5]): 0
- Ratio (Rattus norvegicus [6]): 0
- ED50 (Rattus norvegicus [7]): 31 µg/mL (≈ 19.6 µM)

SMILES: CC(C)C[C@H](NC(=O)[C@@H](CCCCNC(=O)c1ccc(N)nc1)NC(=O)[C@H](CCCCNC(=O)c1ccccn1)NC(=O)[C@@H](NC(=O)[C@@H](Cc1cccnc1)NC(=O)[C@@H](Cc1ccc(Cl)cc1)NC(=O)[C@H](N)Cc1ccc2ccccc2c1)[C@@H](C)O)C(=O)N[C@@H](CCCN=C(N)N)C(=O)N1CCC[C@H]1C(=O)N[C@H](C)C(=O)O
- Ratio (Rattus norvegicus [8]): 5

SMILES: CC(=O)N[C@H](Cc1ccc2ccccc2c1)C(=O)N[C@H](Cc1ccc(Cl)cc1)C(=O)N[C@H](Cc1cccnc1)C(=O)N[C@@H](CO)C(=O)N[C@@H](CCCCNC(=O)c1ccc(N)nc1)C(=O)N[C@H](CCCCNC(=O)c1ccc(N)nc1)C(=O)N[C@@H](CC(C)C)C(=O)N[C@@H](CCCCNC(C)C)C(=O)N1CCC[C@H]1C(=O)N[C@H](C)C(=O)O
- Number of rats ovulated (Rattus norvegicus [2]): 7

SMILES: CC(=O)N[C@H](Cc1ccc2ccccc2c1)C(=O)N[C@H](Cc1ccc(Cl)cc1)C(=O)N[C@H](Cc1cccnc1)C(=O)N[C@@H](CO)C(=O)N[C@@H](CCCCNC(=O)c1ccccn1)C(=O)N[C@H](CCCCNC(=O)c1cnccn1)C(=O)N[C@@H](CC(C)C)C(=O)N[C@@H](CCCCN)C(=O)N1CCC[C@H]1C(=O)N[C@H](C)C(=O)O
- Number of rats ovulated (Rattus norvegicus [3]): 6

SMILES: CC(=O)N[C@H](Cc1ccc2ccccc2c1)C(=O)N[C@H](Cc1ccc(Cl)cc1)C(=O)N[C@H](Cc1cccnc1)C(=O)N[C@@H](CO)C(=O)N[C@@H](CCCCNC(=O)c1cnccn1)C(=O)N[C@H](CCCCNC(=O)c1cccnc1)C(=O)N[C@@H](CC(C)C)C(=O)N[C@@H](CCCCN)C(=O)N1CCC[C@H]1C(=O)N[C@H](C)C(=O)O
- Number of rats ovulated (Rattus norvegicus [3]): 6

SMILES: CC(=O)N[C@H](Cc1ccc2ccccc2c1)C(=O)N[C@H](Cc1ccc(Cl)cc1)C(=O)N[C@H](Cc1cccnc1)C(=O)N[C@@H](CO)C(=O)N[C@@H](CCCCNC(=O)c1cccc(N)n1)C(=O)N[C@H](CCCCNC(=O)c1cccc(N)n1)C(=O)N[C@@H](CC(C)C)C(=O)N[C@@H](CCCN=C(N)N)C(=O)N1CCC[C@H]1C(=O)N[C@H](C)C(=O)O
- Number of rats ovulated (Rattus norvegicus [3]): 6
